Patent publication US9751842B2, “Phthalazine derivatives” (Merck Patent GmbH, priority 2013, dated 2017)

What was measured:
Type in all cases: biochemical
[1] = target: T1, His-tagged Parp-1 (Homo sapiens, UniProt P09874); experiment: PARP-1 autoparsylation HTRF assay; conditions: 150 min at 23° C
T1 construct: purchased Enzo Life Sciences GmbH, Lörrach, Germany
Text: Description of the PARP1 Assay
Biochemical Activity Testing of PARP-1: Autoparsylation Assay
The autoparsylation assay is run in two steps: the enzymatic reaction in which His-tagged Parp-1 transfers biotinylated ADP-ribose/ADP-ribose to itself from biotinylated NAD/NAD as co-substrate and the detection reaction where a time resolved FRET between cryptate labelled anti-His antibody bound to the His tag of the enzyme and Xlent® labelled-streptavidin bound the biotin parsylation residue is analysed. The autoparsylation activity is detectable directly via the increase in HTRF signal.
The autoparsylation assay is performed as 384-well HTRF® (Cisbio, Codolet, France) assay format in Greiner low volume nb 384-well microtiter plates. 35 nM His-tagged Parp-1 (human, recombinant, Enzo Life Sciences GmbH, Lörrach, Germany) and a mixture of 125 nM bio-NAD (Biolog, Life science Inst., Bremen, Germany) and 800 nM NAD as co-substrate are incubated in a total volume of 6 μl (100 mM Tris/HCl, 4 mM Mg-chloride, 0.01% IGEPAL® CA630, 1 mM DTT, 0.5% DMSO, pH 8, 13 ng/μl activated DNA (BPS Bioscience, San Diego, US)) in the absence or presence of the test compound (10 dilution concentrations) for 150 min at 23° C. The reaction is stopped by the addition of 4 μl of the Stop/detection solution (70 nM SA-Xlent® (Cisbio, Codolet, France), 2.5 nM Anti-His-K® (Eu-labelled anti-His, Cisbio, Codolet, France) in 50 mM HEPES, 400 mM KF, 0.1% BSA, 20 mM EDTA, pH 7.0). After 1 h incubation at room temperature the HTRF is measured with an Envision multimode reader (Perkin Elmer LAS Germany GmbH) at excitation wavelength 340 nm (laser mode) and emission wavelengths 615 nm and 665 nm. The ratio of the emission signals is determined. The full value used is the inhibitor-free reaction. The pharmacological zero value used is Olaparib (LClabs, Woburn, US) in a final concentration of 1 μM. The inhibitory values (IC50) are determined using either the program Symyx Assay Explorer® or Condosseo® from GeneData.

[2] = target: T2, GST-tagged Tnks-1 (1023-1327 aa) (Homo sapiens, UniProt O95271); experiment: TNKS1 activity ELISA (autoparsylation); conditions: activity ELISA, 1 hour at 30° C; read-out: IC50 TNKS1 ELISA
T2 construct: GST-tagged Tnks-1 (1023-1327 aa, prepared in-house); made in house
T2 sequence (O95271 1023-1327): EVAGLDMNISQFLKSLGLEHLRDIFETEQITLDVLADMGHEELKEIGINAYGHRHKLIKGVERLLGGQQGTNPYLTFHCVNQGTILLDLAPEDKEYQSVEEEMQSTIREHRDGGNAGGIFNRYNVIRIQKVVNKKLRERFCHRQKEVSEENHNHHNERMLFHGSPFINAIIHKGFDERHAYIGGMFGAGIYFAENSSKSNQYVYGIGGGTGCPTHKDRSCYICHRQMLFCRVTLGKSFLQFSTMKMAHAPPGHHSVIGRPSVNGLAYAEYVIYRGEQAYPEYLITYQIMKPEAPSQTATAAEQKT
Method: (§1) Description of the TNKS1 and TNKS2 ELISA Assay
(§2) Biochemical Activity Testing of TNKS 1 and 2: Activity ELISA (Autoparsylation Assay)
(§3) For analysis of autoparsylation activity of TNKS 1 and 2 an activity ELISA is performed: In the first step GST tagged TNKS is captured on a Glutathione coated plate. Then the activity assay with biotinylated NAD is performed in the absence/presence of the compounds. During the enzymatic reaction GST tagged TNKS transfers biotinylated ADP-ribose to itself from biotinylated NAD as co-substrate. For the detection streptavidin-HRP conjugate is added that binds to the biotinylated TNKS and is thereby captured to the plates. The amount of biotinylated resp. autoparsylated TNKS is detected with a luminescence substrate for HRP. The level of the luminescence signal correlates directly with the amount of autoparsylated TNKS and therefore with activity of TNKS.
(§4) The activity ELISA is performed in 384 well Glutathione coated microtiter plates (Express capture Glutathione coated plate, Biocat, Heidelberg, Germany). The plates are pre-equilibrated with PBS. Then the plates are incubated with 50 μl 20 ng/well GST-tagged Tnks-1 (1023-1327 aa, prepared in-house), respectively GST-tagged Tnks-2 (873-1166 aa, prepared in-house) in assay buffer (50 mM HEPES, 4 mM Mg-chloride, 0.05% Pluronic F-68, 2 mM DTT, pH 7.7) overnight at 4° C. The plates are washed 3 times with PBS-Tween-20. The wells are blocked by incubation at room temperature for 20 minutes with 50 μl blocking buffer (PBS, 0.05% Tween-20, 0.5% BSA). Afterwards the plates are washed 3 times with PBS-Tween-20. The enzymatic reaction is performed in 50 μl reaction solution (50 mM HEPES, 4 mM Mg-chloride, 0.05% Pluronic F-68, 1.4 mM DTT, 0.5% DMSO, pH 7.7) with 10 μM bio-NAD (Biolog, Life science Inst., Bremen, Germany) as co-substrate in the absence or presence of the test compound (10 dilution concentrations) for 1 hour at 30° C. The reaction is stopped by 3 times washing with PBS-Tween-20. For the detection 50 μl of 20 ng/μl Streptavidin, HRP conjugate (MoBiTec, Göttingen, Germany) in PBS/0.05% Tween-20/0.01% BSA are added and the plates are incubated for 30 minutes at room temperature. After three times washing with PBS-Tween-20 50 μl of SuperSignal ELISA Femto Maximum sensitivity substrate solution (ThermoFisherScientific (Pierce), Bonn, Germany) are added. Following a 1 minute incubation at room temperature luminescence signals are measured with an Envision multimode reader (Perkin Elmer LAS Germany GmbH) at 700 nm. The full value used is the inhibitor-free reaction. The pharmacological zero value used is XAV-939 (Tocris) in a final concentration of 5 μM. The inhibitory values (IC50) are determined using either the program Symyx Assay Explorer® or Condosseo® from GeneData.

[3] = target: T3, GST-tagged Tnks-2 (873-1166 aa) (Homo sapiens, UniProt Q9H2K2); experiment: TNKS2 activity ELISA (autoparsylation); conditions: activity ELISA, 1 hour at 30° C; read-out: IC50 TNKS2 ELISA
T3 construct: GST-tagged Tnks-2 (873-1166 aa, prepared in-house); made in house
T3 sequence (Q9H2K2 873-1166): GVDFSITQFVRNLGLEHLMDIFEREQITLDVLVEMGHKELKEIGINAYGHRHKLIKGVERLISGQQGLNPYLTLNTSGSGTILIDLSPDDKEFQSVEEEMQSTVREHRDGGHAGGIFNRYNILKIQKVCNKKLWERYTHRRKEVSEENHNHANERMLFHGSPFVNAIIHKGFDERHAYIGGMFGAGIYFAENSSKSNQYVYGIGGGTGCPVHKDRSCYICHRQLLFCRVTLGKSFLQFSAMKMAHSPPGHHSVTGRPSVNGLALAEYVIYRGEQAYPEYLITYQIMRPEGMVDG
Method: as §1, §2, §3, §4

T1 sequence (P09874 whole entry): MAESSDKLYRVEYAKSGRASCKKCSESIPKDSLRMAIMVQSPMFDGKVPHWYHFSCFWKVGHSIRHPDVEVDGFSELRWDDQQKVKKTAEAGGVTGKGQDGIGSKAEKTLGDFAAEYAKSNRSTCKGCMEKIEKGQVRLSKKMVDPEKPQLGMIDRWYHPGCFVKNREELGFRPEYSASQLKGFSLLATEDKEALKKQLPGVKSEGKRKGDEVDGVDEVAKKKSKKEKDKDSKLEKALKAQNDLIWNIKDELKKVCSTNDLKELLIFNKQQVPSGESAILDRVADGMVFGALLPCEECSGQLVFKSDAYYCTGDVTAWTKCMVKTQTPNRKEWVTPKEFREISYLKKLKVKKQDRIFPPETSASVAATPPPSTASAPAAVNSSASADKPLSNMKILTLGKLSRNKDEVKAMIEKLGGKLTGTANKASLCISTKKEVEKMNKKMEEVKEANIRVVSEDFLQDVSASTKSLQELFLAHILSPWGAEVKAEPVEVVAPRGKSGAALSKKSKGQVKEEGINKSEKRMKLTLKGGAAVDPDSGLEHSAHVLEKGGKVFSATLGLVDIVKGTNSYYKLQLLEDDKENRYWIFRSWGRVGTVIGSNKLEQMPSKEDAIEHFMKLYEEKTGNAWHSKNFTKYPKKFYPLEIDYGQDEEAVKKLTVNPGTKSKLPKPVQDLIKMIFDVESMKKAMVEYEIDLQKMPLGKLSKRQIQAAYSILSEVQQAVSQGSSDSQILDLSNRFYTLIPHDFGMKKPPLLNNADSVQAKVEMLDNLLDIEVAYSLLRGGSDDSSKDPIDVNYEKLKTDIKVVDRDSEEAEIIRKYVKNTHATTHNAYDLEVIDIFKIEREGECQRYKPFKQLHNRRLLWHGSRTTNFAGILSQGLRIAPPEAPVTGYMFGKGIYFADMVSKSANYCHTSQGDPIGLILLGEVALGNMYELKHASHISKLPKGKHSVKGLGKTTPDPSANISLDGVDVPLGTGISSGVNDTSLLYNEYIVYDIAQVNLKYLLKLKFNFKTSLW

Row | Structure (SMILES) | IC50 [1] [nM] | IC50 [2] [nM] | IC50 [3] [nM]
1 | O=C(Cc1ccccc1)Nc1nncc2ccccc12 [Compound A1, 2-phenyl-N-phthalazin-1-yl-acetamide] | 3000 to 50000 | < 300 | 300 to 3000
2 | O=C(CCC1CCCC1)Nc1nncc2ccccc12 [Compound A15, 3-cyclopentyl-N-phthalazin-1-yl-propionamide] | 3000 to 50000 | < 300 | < 300
3 | O=C(CCc1ccccc1Cl)Nc1nncc2ccccc12 [Compound A16, 3-(2-chloro-phenyl)-N-phthalazin-1-yl-propionamide] | 3000 to 50000 | < 300 | < 300
4 | Cc1cccc2cnnc(NC(=O)Cc3ccccc3)c12 [Compound A18, N-(8-methyl-phthalazin-1-yl)-2-phenyl-acetamide] | 300 to 3000 | < 300 | < 300

Next, values leading:

Row | IC50 [1] [nM] | IC50 [2] [nM] | IC50 [3] [nM] | Structure (SMILES)
5 | 3000 to 50000 | 300 to 3000 | 300 to 3000 | COc1cccc(CC(=O)Nc2nncc3ccccc23)c1 [Compound A2, 2-(3-methoxyphenyl)-N-phthalazin-1-yl-acetamide]
6 | 3000 to 50000 | < 300 | < 300 | COc1ccc(CC(=O)Nc2nncc3ccccc23)cc1 [Compound A3, 2-(4-methoxyphenyl)-N-phthalazin-1-yl-acetamide]
7 | 3000 to 50000 | < 300 | < 300 | CCOc1ccc(CC(=O)Nc2nncc3ccccc23)cc1 [Compound A4, 2-(4-ethoxyphenyl)-N-phthalazin-1-yl-acetamide]
8 | 300 to 3000 | < 300 | < 300 | COc1ccc(CC(=O)Nc2nncc3cccc(C)c23)cc1 [Compound A20, 2-(4-methoxy-phenyl)-N-(8-methyl-phthalazin-1-yl)-acetamide]
